Data taken from patent publication US6762170B1, “2-(purin-9-yl)-tetrahydrofuran-3,4-diol derivatives” (SmithKlineBeecham Corporation, priority 1998, dated 2004).
Counter-ions that a name gives are not always drawn.

What was measured:
Type in all cases: cell-based
Adenosine 1 receptor = target: T1, Adenosine 1 receptor (Homo sapiens, UniProt P30542); assay: Agonist activity against adenosine 1 receptor subtype (CHO cells, forskolin-enhanced cAMP, SPAP reporter); conditions: EC50 ratio to NECA; transfected CHO cells, forskolin-enhanced cAMP reflected by SPAP
T1 construct: expressed in transfected cells; host or cells: Chinese hamster ovary (CHO) cells, co-transfected with a CRE-SPAP reporter
T1 sequence (P30542 1-326): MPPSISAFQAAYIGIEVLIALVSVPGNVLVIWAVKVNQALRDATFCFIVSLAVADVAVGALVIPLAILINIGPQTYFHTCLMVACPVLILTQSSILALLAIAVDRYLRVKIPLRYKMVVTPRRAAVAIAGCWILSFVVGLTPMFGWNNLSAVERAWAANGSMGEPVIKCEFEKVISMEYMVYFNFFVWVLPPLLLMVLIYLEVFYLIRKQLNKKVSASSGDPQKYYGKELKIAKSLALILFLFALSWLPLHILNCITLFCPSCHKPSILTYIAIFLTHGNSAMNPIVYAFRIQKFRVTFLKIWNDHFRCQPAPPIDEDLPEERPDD
Protocol: (§1) (1) Agonist Activity Against Adenosine 2a, Adenosine 1 and Adenosine 3 Receptor Subtypes.
(§2) Agonist selectivity of compounds against other human adenosine receptors is determined using Chinese hamster ovary (CHO) cells transfected with the gene for the relevant human adenosine receptor following a method based on that of Castanon and Spevak, 1994. The CHO cells are also transfected with cyclic AMP response elements promoting the gene for secreted placental alkaline phosphatase (SPAP) (Wood, 1995). The effect of test compounds may be determined by their effects on basal levels of cAMP (A2a) or on forskolin-enhanced cAMP (A1 and A3) as reflected by changes in levels of SPAP. EC50 values for compounds may then be determined as a ratio to that of the non-selective agonist N-ethyl carboxamide adenosine (NECA).
(§3) Values given in the Table are EC50 values as a ratio of that of NECA.

Adenosine 2a receptor = target: T2, Adenosine 2a receptor (Homo sapiens, UniProt P29274); assay: Agonist activity against adenosine 2a receptor subtype (CHO cells, cAMP response element/SPAP reporter); conditions: EC50 ratio to NECA; transfected CHO cells, basal cAMP reflected by SPAP
T2 construct: expressed in transfected cells; host or cells: Chinese hamster ovary (CHO) cells, co-transfected with a CRE-SPAP reporter
T2 sequence (P29274 whole entry): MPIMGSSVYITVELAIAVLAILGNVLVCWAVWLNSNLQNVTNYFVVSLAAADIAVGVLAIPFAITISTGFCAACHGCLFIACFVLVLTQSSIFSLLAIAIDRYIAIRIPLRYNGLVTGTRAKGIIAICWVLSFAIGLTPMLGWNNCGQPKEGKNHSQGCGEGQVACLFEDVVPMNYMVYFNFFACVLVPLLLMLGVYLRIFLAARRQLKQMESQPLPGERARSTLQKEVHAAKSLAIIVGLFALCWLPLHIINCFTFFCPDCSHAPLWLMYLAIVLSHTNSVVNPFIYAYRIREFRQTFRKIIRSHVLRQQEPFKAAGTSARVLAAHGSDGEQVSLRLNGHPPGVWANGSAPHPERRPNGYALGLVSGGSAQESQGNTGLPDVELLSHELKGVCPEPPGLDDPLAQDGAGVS
Protocol: as §1, §2, §3

Adenosine 3 receptor = target: T3, Adenosine 3 receptor (Homo sapiens, UniProt P0DMS8); assay: Agonist activity against adenosine 3 receptor subtype (CHO cells, forskolin-enhanced cAMP, SPAP reporter); conditions: EC50 ratio to NECA; transfected CHO cells, forskolin-enhanced cAMP reflected by SPAP
T3 construct: expressed in transfected cells; host or cells: Chinese hamster ovary (CHO) cells, co-transfected with a CRE-SPAP reporter
T3 sequence (P0DMS8 1-318): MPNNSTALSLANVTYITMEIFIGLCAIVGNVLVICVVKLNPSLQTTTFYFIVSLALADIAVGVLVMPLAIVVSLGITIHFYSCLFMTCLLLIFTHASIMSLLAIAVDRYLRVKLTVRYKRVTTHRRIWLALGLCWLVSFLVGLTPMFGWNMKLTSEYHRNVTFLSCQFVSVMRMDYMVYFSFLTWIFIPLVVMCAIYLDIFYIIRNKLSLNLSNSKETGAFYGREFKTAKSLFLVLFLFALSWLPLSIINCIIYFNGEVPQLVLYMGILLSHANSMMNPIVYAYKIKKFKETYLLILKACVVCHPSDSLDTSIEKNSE
Protocol: as §1, §2, §3

| Structure (SMILES) | A1 (EC50 values as a ratio of that of NECA) (Adenosine 1 receptor) | A2a (EC50 values as a ratio of that of NECA) (Adenosine 2a receptor) | A3 (EC50 values as a ratio of that of NECA) (Adenosine 3 receptor) |
| --- | --- | --- | --- |
| CCc1cc([C@H]2O[C@@H](n3cnc4c(NCC(c5ccccc5)c5ccccc5)nc(NCCNc5ccccn5)nc43)[C@H](O)[C@@H]2O)on1.O=CO.O=CO [Example 16, (2R,3R,4S,5S)-2-{6-(2,2-Diphenyl-ethylamino)-2-[2-(pyridin-2-ylamino)-ethylamino]-purin-9-yl}-5-(3-ethyl-isoxazol-5-yl)-tetrahydro-furan-3,4-diol diformate] | 442 | 0.35 | >1004 |
| CCc1cc(C2OC(n3cnc4c(NCC(c5ccccc5)c5ccccc5)nc(NC(CO)Cc5ccccc5)nc43)C(O)C2O)on1 [Example 17, (2R,3R,4S,5S)-2-[6-(2,2-Diphenyl-ethylamino)-2-(1S-hydroxymethyl-2-phenyl-ethylamino)-purin-9-yl]-5-(3-ethyl-isoxazol-5-yl)-tetrahydro-furan-3,4-diol formate] | 1172 | 0.34 | >298 |
| CCc1cc(C2OC(n3cnc4c(N)nc(NCCc5ccc(S(N)(=O)=O)cc5)nc43)C(O)C2O)on1 (stereo not drawn) [Example 18, 4-(2-{6-Amino-9-[5S-(3-ethyl-isoxazol-5-yl)-3R,4S-dihydroxy-tetrahydro-furan-2R-yl]-9H-purin-2-ylamino}-benzenesulfonamide formate] | 2580 | 0.72 | >460 |
| CCc1cc(C2OC(n3cnc4c(NCc5cccc(I)c5)nc(NCCc5cn(C)cn5)nc43)C(O)C2O)on1.O=CO.O=CO [Example 20, (2S,3S,4R,5R)-2-(3-Ethyl-isoxazol-5-yl)-5-{6-(3-iodo-benzylamino)-2-[2-(1-methyl-1H-imidazol-4-yl)-ethylamino]-purin-9-yl}-tetrahydro-furan-3,4-diol diformate] | 310.9 | 2.04 | >267 |
| CCc1cc(C2OC(n3cnc4c(NCCC5CCCCC5)nc(NCCc5cn(C)cn5)nc43)C(O)C2O)on1.O=CO.O=CO [Example 21, (2R,3R,4S,5S)-2-{6-(2-Cyclohexyl-ethylamino)-2-[2-(1-methyl-1H-imidazol-4-yl)-ethylamino]-purin-9-yl}5-(3-ethyl-isoxazol-5-yl)-tetrahydro-furan-3,4-diol diformate] | 1624.29 | 1.55 | >267 |
| CCc1cc(C2OC(n3cnc4c(NCCC5CCCCC5)nc(NC(CO)Cc5ccccc5)nc43)C(O)C2O)on1 [Example 22, (2R,3R,4S,5S)-2-[6-(2-Cyclohexyl-ethylamino)-2-(1 S-hydroxy-methyl-2-phenyl-ethylamino)-purin-9-yl]-5-(3-ethyl-isoxazol-5-yl)-tetrahydro-furan-3,4-diol formate] | 8026.2 | 9.17 | >254 |
| CCc1cc(C2OC(n3cnc4c(NCC(c5ccccc5)c5ccccc5)nc(NCCNC(=N)N)nc43)C(O)C2O)on1 (stereo not drawn) [Example 23, N-2-{6-(2,2-Diphenyl-ethylamino)-9-[5S-(3-ethyl-isoxazol-5-yl)-3R,4S-dihydroxy-tetrahydro-furan-2R-yl]-9H-purin-2-ylamino}-ethyl)-guanidine diformate] | >=3263 | 13.4 | >282 |
| CCc1cc(C2OC(n3cnc4c(NCC(c5ccccc5)c5ccccc5)nc(NC5CCC(NC(C)=O)CC5)nc43)C(O)C2O)on1 (stereo not drawn) [Example 24, N-(4-{6-(2,2-Diphenyl-ethylamino)-9-[5S-(3-ethyl-isoxazol-5-yl)-3R,4S-dihydroxy-tetrahydro-furan-2R-yl]-9H-purin-2-ylamino}-cyclohexyl)-acetamide formate] | 573.6 | 0.23 | >248 |
| CCc1cc(C2OC(n3cnc4c(NCCS(=O)(=O)NC)nc(NCCNC(=N)N)nc43)C(O)C2O)on1 (stereo not drawn) [Example 25, 2-[2-9-[5S-(3-Ethyl-isoxazol-5-yl)-3R,4S-dihydroxy-tetrahydro-furan-2R-yl]-2-(2-guanidino-ethylamino)-9H-purin-6-ylamino]-ethanesulfonic acid methylamide diformate] | 103.8 | 5.46 | >198 |
| CCc1cc(C2OC(n3cnc4c(NC5CCS(=O)(=O)CC5)nc(NCCNC(=N)N)nc43)C(O)C2O)on1 (stereo not drawn) [Example 26, N-(2-{6-(1,1-Dioxo-hexahydro-1λ6-thiopyran-4-ylamino)-9-[5S-(3-ethyl-isoxazol-5-yl)-3R ,4S-dihydroxy-tetrahydro-furan-2R-yl]-9H-purin-2-ylamino}-ethyl)-guanidine diformate] | 273.3 | 6.89 | >286 |
| CCc1cc(C2OC(n3cnc4c(NCCS(=O)(=O)NC)nc(NC(CO)Cc5ccccc5)nc43)C(O)C2O)on1 (stereo not drawn) [Example 27, 2-[9-[5S-(3-Ethyl-isoxazol-5-yl)-3R,4S-dihydroxy-tetrahydro-furan-2R-yl]-2-(1S-hydroxymethyl-2-phenyl-ethylamino)-9H-purin-6-ylamino]-ethanesulfonic acid methylamide formate] | 3.18 | 3 | >273 |
| CCc1cc(C2OC(n3cnc4c(NC5CCN(C(C)=O)CC5)nc(NC(CO)Cc5ccccc5)nc43)C(O)C2O)on1 (stereo not drawn) [Example 28, 1-{4-[9-[5S-(3-Ethyl-isoxazol-5-yl)-3R,4S-dihydroxy-tetrahydro-furan-2R-yl]-2-(1S-hydroxymethyl-2-phenyl-ethylamino)-9H-purin-6-ylamino]-piperidin-1-yl}-ethanone formate] | 165.8 | 14.5 | >263 |
| CCc1cc(C2OC(n3cnc4c(NC5CCN(C(C)=O)CC5)nc(NC5CCC(N)CC5)nc43)C(O)C2O)on1 (stereo not drawn) [Example 29, 1-(4-{2-(trans-4-Amino-cyclohexylamino)-9-[5S-(3-ethyl-isoxazol-5-yl)-3R,4S-dihydroxy-tetrahydro-furan-2R-yl]-9H-purin-6-ylamino}-piperidin-1-yl)-ethanone diformate] | 27.24 | 5.03 | >298 |
| CCc1cc([C@@H]2O[C@H](n3cnc4c(NC5CCSCC5)nc(NCCc5ccccn5)nc43)[C@@H](O)[C@H]2O)on1.O=CO.O=CO [Example 30, (2R,3R,4S,5S)-2-(3Ethyl-isoxazol-5-yl)-5-[2-(2-pyridin-2-yl-ethylamino)-6-(tetrahydro-thiopyran-4-ylamino)-purin-9-yl]-tetrahydro-furan-3,4-diol diformate] | 108.8 | 4.58 | >257 |
